{
  "source": "patent US8017557B2",
  "about": "“Benzodioxole derivatives as modulators of proteolytic activity in plants” (Endura S.p.A., priority 2002, dated 2011)",
  "key": {"[1]": {"target": "bromelain (Ananas comosus, UniProt P14518)", "sequence (P14518 whole entry)": "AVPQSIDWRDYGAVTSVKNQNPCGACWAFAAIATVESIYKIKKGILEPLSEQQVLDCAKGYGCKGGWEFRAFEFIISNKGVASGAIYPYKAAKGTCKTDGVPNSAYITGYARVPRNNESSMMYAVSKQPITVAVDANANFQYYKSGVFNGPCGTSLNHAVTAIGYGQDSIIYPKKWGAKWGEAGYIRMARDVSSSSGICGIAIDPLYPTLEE", "details": "for initial velocity, Mean / initial velocity, test 1 / initial velocity, test 2 / Mean (% contr.): 1% PBO; for Mean (% contr.): % of control", "protocol": "The assay was carried out as described in Heinrikson & Kezdy, 1976, Methods in Enzymol. 45, p. 740. The conditions are summarised briefly herein: 50 μg of bromelain was mixed with variable quantities of Na CBZ-L-lysine p-nitrophenyl ester substrate in 3 ml of 10 mM acetate buffer pH 4.6 containing KCl (0.1 M) and L-cystein (1 mM)."}, "[2]": {"tested_on": "peptidase activity in cotton plants", "assay": "Photometric assay of peptidase activity with DL-BAPA as substrate in cotton plants", "assay_type": "in vivo, cotton (cv. Sicala V2i)", "details": "for Peptidase activity, PBO treated cv. V2i Bt: DL-BAPA substrate", "protocol": "The photometric assay was carried out following the DL-BAPA hydrolysis at 410 nm. One peptidase unit (U) was defined as the amount of the enzyme, which produces one unit of absorbance variation at 410 nm/minute at pH 8.2 and 30° C. For each extract, the amount of soluble proteins in mg was determined by the Biuret method and the enzymatic activity was then expressed as specific activity i.e. Units/mg soluble proteins.\nEach analysis was performed in duplicate or in triplicate and the standard deviation for each point is also indicated. Abscissa: time (days); ordinate: trypsin units/mg soluble protein.\nThe samples were collected at different development stages of plants, which were: […], 60 and 85 days after sowing. These samples were also analysed for determining the Bt content (as described in example 4). To this aim, the enzymatic activity was tested on crude freeze dried leaf extracts with two different assays: the Radial Diffusion Assay (RDA), in which a protein, such as the bovine gelatine, was used as a substrate to test the endopeptidase activity, and a photometric assay described in the next example, in which DL-BAPA was used as a substrate, to determine a general peptidase activity.\nA powder aliquot, which represents each step of plant growth, of the treated and controls samples was extracted in two steps. The powder sample was extracted with buffer 0.1 M Tris-HCl pH 7.7 (1:20 w/v) using an Ultraturrax blender at 24,000×RPM for 2 min in a ice bath to avoid overheating. […] The clear supernatant was collected and filtrated with Whatman paper no 4. The pellet was further extracted with the same procedure, with the exception that in this case the extraction ratio was 1:10 (w/v). Finally, the supernatants of the two extractions processes were joined and then concentrated 4-5 times by centrifugation at 3,000×g at 15° C. for 2 hours, using suitable concentrators (Amicon Inc. Beverly, Mass.—USA), fitted with a membrane of 10 κD cut off.\nFor each extract, the amount of soluble proteins was determined by the Biuret method and the enzymatic activity was then expressed as specific activity i.e. Units/mg soluble proteins.\nThe photometric assay was carried out as described in Erlanger, B. F. et al. Arch. Biochem., 1961, 95: 271-278. In the assay is measured the absorbance variation due to DL-BAPA hydrolysis at 410 nm. The assay was performed mixing directly in the cuvette 20 μl of cotton crude extract with 980 μl of DL-BAPA in buffer 0.1 M Tris-HCl pH 8.2. One peptidase unit was defined as the amount of the enzyme which produces one unit of absorbance variation (410 nm) per minute at pH 8.2 and 30° C.\nEach series of analysis was performed in duplicate or triplicate. […] In this figure is shown a maximum of peptidase activity around 60 days of development. […] A statistically significant inhibition is observed during the most part of the plant growing cycle. Finally, in table 7 is shown the specific activities of peptidase of treated and untreated Sicala V2i cotton samples. In this table it is also reported the activity differences in percentage between the treated and untreated samples."}, "[3]": {"details": "PBO 0.334 % (w/w), substrate 240 μM"}, "[4]": {"details": "PBO 0.5 % (w/w), substrate 240 μM"}, "[5]": {"details": "PBO 0.667 % (w/w), substrate 240 μM"}, "[6]": {"details": "PBO 1 % (w/w), substrate 240 μM"}, "[7]": {"details": "PBO 1.334 % (w/w), substrate 240 μM"}, "[8]": {"details": "PBO 1.667 % (w/w), substrate 240 μM"}},
  "note": "Where two headings read alike, the source gives them in different places.",
  "data": [
    {"smiles": "CCCCOCCOCCOCc1cc2c(cc1CCC)OCO2", "note": "[PBO, 5-[[2-(2-Butoxyethoxy)ethoxy]methyl]-6-propyl-1,3-benzodioxole]", "values": [
      {"measurement": "initial velocity, Mean", "setting": "[1]; substrate 24 μM", "value": 0.0136, "unit": "absorbance at 340 nm/min"},
      {"measurement": "initial velocity, test 1", "setting": "[1]; substrate 24 μM", "value": 0.0141, "unit": "absorbance at 340 nm/min"},
      {"measurement": "initial velocity, test 2", "setting": "[1]; substrate 24 μM", "value": 0.0130, "unit": "absorbance at 340 nm/min"},
      {"measurement": "Mean (% contr.)", "setting": "[1]; substrate 24 μM", "value": 68, "unit": "%"},
      {"measurement": "initial velocity, Mean", "setting": "[1]; substrate 48 μM", "value": 0.0270, "unit": "absorbance at 340 nm/min"},
      {"measurement": "initial velocity, test 1", "setting": "[1]; substrate 48 μM", "value": 0.0243, "unit": "absorbance at 340 nm/min"},
      {"measurement": "initial velocity, test 2", "setting": "[1]; substrate 48 μM", "value": 0.0297, "unit": "absorbance at 340 nm/min"},
      {"measurement": "Mean (% contr.)", "setting": "[1]; substrate 48 μM", "value": 68, "unit": "%"},
      {"measurement": "initial velocity, Mean", "setting": "[1]; substrate 96 μM", "value": 0.0490, "unit": "absorbance at 340 nm/min"},
      {"measurement": "initial velocity, test 1", "setting": "[1]; substrate 96 μM", "value": 0.0518, "unit": "absorbance at 340 nm/min"},
      {"measurement": "initial velocity, test 2", "setting": "[1]; substrate 96 μM", "value": 0.0461, "unit": "absorbance at 340 nm/min"},
      {"measurement": "Mean (% contr.)", "setting": "[1]; substrate 96 μM", "value": 78, "unit": "%"},
      {"measurement": "Initial velocity (% of control), Exp. 1", "setting": "[1]; [3]", "value": 95, "unit": "%"},
      {"measurement": "Initial velocity (% of control), Exp. 2", "setting": "[1]; [3]", "value": 98, "unit": "%"},
      {"measurement": "Initial velocity, Exp. 1", "setting": "[1]; [3]", "value": 0.1306, "unit": "absorbance at 340 nm/min"},
      {"measurement": "Initial velocity, Exp. 2", "setting": "[1]; [3]", "value": 0.1197, "unit": "absorbance at 340 nm/min"},
      {"measurement": "Initial velocity, Exp. 3", "setting": "[1]; [3]", "value": 0.1029, "unit": "absorbance at 340 nm/min"},
      {"measurement": "Initial velocity (% of control), Exp. 1", "setting": "[1]; [4]", "value": 91, "unit": "%"},
      {"measurement": "Initial velocity, Exp. 1", "setting": "[1]; [4]", "value": 0.1252, "unit": "absorbance at 340 nm/min"},
      {"measurement": "Initial velocity (% of control), Exp. 2", "setting": "[1]; [5]", "value": 88, "unit": "%"},
      {"measurement": "Initial velocity, Exp. 2", "setting": "[1]; [5]", "value": 0.1079, "unit": "absorbance at 340 nm/min"},
      {"measurement": "Initial velocity (% of control), Exp. 1", "setting": "[1]; [6]", "value": 86, "unit": "%"},
      {"measurement": "Initial velocity (% of control), Exp. 2", "setting": "[1]; [6]", "value": 86, "unit": "%"},
      {"measurement": "Initial velocity, Exp. 1", "setting": "[1]; [6]", "value": 0.1194, "unit": "absorbance at 340 nm/min"},
      {"measurement": "Initial velocity, Exp. 2", "setting": "[1]; [6]", "value": 0.1057, "unit": "absorbance at 340 nm/min"},
      {"measurement": "Initial velocity (% of control), Exp. 2", "setting": "[1]; [7]", "value": 84, "unit": "%"},
      {"measurement": "Initial velocity, Exp. 2", "setting": "[1]; [7]", "value": 0.1029, "unit": "absorbance at 340 nm/min"},
      {"measurement": "Initial velocity (% of control), Exp. 2", "setting": "[1]; [8]", "value": 76, "unit": "%"},
      {"measurement": "Initial velocity, Exp. 2", "setting": "[1]; [8]", "value": 0.0927, "unit": "absorbance at 340 nm/min"},
      {"measurement": "PBO concentration with inhibitory activity on bromelain", "setting": "[1]; substrate 240 μM, concentration dependent", "value": "higher than 0.5%"},
      {"measurement": "Difference % Treated minus untreated (peptidase, DL-BAPA)", "setting": "[2]; 4 days after sowing", "value": 4.99, "unit": "%"},
      {"measurement": "Peptidase activity, PBO treated cv. V2i Bt", "setting": "[2]; 4 days after sowing", "value": "5.21 U/mg of soluble protein × 10^−2"},
      {"measurement": "Difference % Treated minus untreated (peptidase, DL-BAPA)", "setting": "[2]; 35 days after sowing", "value": "−23.54", "unit": "%"},
      {"measurement": "Peptidase activity, PBO treated cv. V2i Bt", "setting": "[2]; 35 days after sowing", "value": "9.43 U/mg of soluble protein × 10^−2"},
      {"measurement": "Difference % Treated minus untreated (peptidase, DL-BAPA)", "setting": "[2]; 60 days after sowing", "value": "−25.55", "unit": "%"},
      {"measurement": "Peptidase activity, PBO treated cv. V2i Bt", "setting": "[2]; 60 days after sowing", "value": "13.62 U/mg of soluble protein × 10^−2"},
      {"measurement": "Difference % Treated minus untreated (peptidase, DL-BAPA)", "setting": "[2]; 85 days after sowing", "value": 18.68, "unit": "%"},
      {"measurement": "Peptidase activity, PBO treated cv. V2i Bt", "setting": "[2]; 85 days after sowing", "value": "12.42 U/mg of soluble protein × 10^−2"}
    ]}
  ]
}
